According to the supplement of paper PMC10949913:

How the values were obtained:
CU-ACC1 = assay: area under concentration-response curve (viability) (AUC (a.u.)); higher = less active; conditions: 48 h
In short: (§1)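 Three adrenocortical carcinoma cell lines were exposed for 48 h to library compounds at 11 concentrations in 1,536-well plates, then read by CellTiter-Glo luminescence. Signals were scaled per plate against vehicle and empty-well controls. From fitted concentration-response curves of inhibitory or non-responding classes alone, AC50 and area under the curve were obtained.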

NCI-H295R = assay: as above; conditions: 48 h
In short: as §1

| SMILES | area under concentration-response curve (CU-ACC1) | area under concentration-response curve (NCI-H295R) |
| --- | --- | --- |
| CN1C(=O)C[C@H](C(=O)N[C@@H](Cc2cnc[nH]2)C(=O)N2CCC[C@H]2C(N)=O)NC1=O | 537 | 589 |
| COC1=C(OC)C=C2C(=C1)C(=O)N(CCC[N]3C=CN=C3)\C4=C2\C(=O)C5=CC6=C(OCO6)C=C45 | 468 | 517 |
| O=C(/C=C/c1ccc(O)cc1)c1ccc(O)cc1O | 465 | 492 |
| CN[C@@H](C)[C@H]1[C@H](O)C[C@@]2(C)[C@@H]3CC[C@H]4C(C)(C)[C@@H](NC)CC[C@@]45C[C@@]35CC[C@]12C | 546 | 613 |
| COC/1=C(\CNC(=O)C2=C(C)[N]([C@H](C)C3CCOCC3)C4=CC=CC=C24)C(=O)NC(=C1)/C | 357 | 429 |
| CC1=NN(c2ccc(C)c(C)c2)C(=O)/C1=N/Nc1cccc(-c2cccc(C(=O)O)c2)c1O | 437 | 500 |
| NC\1=N\C(=O)N(\C=C1F)[C@H]2C[C@H](O)[C@@H](CO)O2 | 334 | 416 |
| Cc1ccc(Nc2cc(-c3cccc(N4C(=O)c5ccccc5C4=O)c3)ncn2)cc1N[S+](C)(=O)[O-] | 462 | 490 |
| COc1cc2ncnc(Oc3cccc(NC(=O)Nc4cc(C(C)(C)C(F)(F)F)on4)c3)c2cc1OC | 446 | 467 |
| Cc1nc(N)sc1-c1ccnc(Nc2ccc(N3CCOCC3)cc2)n1 | 400 | 414 |
| O=C\1N(N\C=C1[N]2C=CN=N2)C3=NC=NC(=C3)N4CCOCC4 | 492 | 521 |
| COc1ccc(C2(C#N)CCC(C(=O)O)CC2)cc1OC1CCCC1 (stereo not given) | 548 | 606 |
| COc1ccccc1C(=O)Nc1cc2c(cc1N1CCNC[C@H]1C)n(C)c(=O)n2C | 479 | 550 |
| CCNC(=O)Nc1ncc(-c2cc(-c3c(C)cc(OC)cc3C)nc(-c3cnccn3)n2)s1 | 482 | 520 |
| Cc1ccc(-c2ccc3c(ccc4sc5c(c43)NC[C@@H](C)NC5=O)n2)cn1 | 473 | 504 |
| O=C1OC(COc2ccccc2[N+](=O)[O-])CC1Cc1ccccc1 (stereo not given) | 412 | 521 |
| O=C/1NC(=O)C(=C1C2=CN=C3C=CC=C[N]23)/C4=C[N]5CCN(CC6=C5C4=CC=C6)C(=O)N7CCOCC7 | 514 | 526 |
| CCOC(=O)Nc1ccc(NCc2ccc(F)cc2)cc1N | 543 | 578 |
| CN1C(=O)N[C@H](Cc2c[nH]c3c(Cl)cccc23)C1=O | 425 | 445 |
| O=C(Nc1cccc(C(F)(F)F)c1)c1cccc2cc(Oc3cc(CO)ncn3)ccc12 | 516 | 579 |
